Source: the supplement of paper PMC10307832

Assays:
Assay in all cases: relative viability (nuclei count vs DMSO), 5 days (fraction); higher = more cells survive
[1] = compound: C1CCC(CC1)N(CCNCCC2=C3C(=C(C=C2)O)NC(=O)CO3)C(=O)CCNCCC4=CC(=C(C=C4)Cl)Cl [AZ505] + O=C(c1cc(Cc2n[nH]c(=O)c3ccccc23)ccc1F)N1CCN(C(=O)C2CC2)CC1 [Olaparib] (partner 8 µM)
Outline: (§1)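 Medians of duplicate plates are given as relative viability. That measure is the nuclei count in treated wells divided by the count in vehicle wells. Counts were taken on 4× images of lung cancer cell lines in 1536-well plates, 5 days after pin-tool dosing the day after seeding with one drug alone or a fixed anchor-drug dose plus five library-drug doses (not always all listed) in √10 steps.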

[2] = compound: C1CCC(CC1)N(CCNCCC2=C3C(=C(C=C2)O)NC(=O)CO3)C(=O)CCNCCC4=CC(=C(C=C4)Cl)Cl [AZ505] + CS(=O)(=O)CCNCc1ccc(-c2ccc3ncnc(Nc4ccc(OCc5cccc(F)c5)c(Cl)c4)c3c2)o1 [Lapatinib] (partner 2 µM)
Outline: as §1

[3] = compound: C1CCC(CC1)N(CCNCCC2=C3C(=C(C=C2)O)NC(=O)CO3)C(=O)CCNCCC4=CC(=C(C=C4)Cl)Cl [AZ505] + Cc1cc(Nc2cc(N3CCN(C)CC3)nc(Sc3ccc(NC(=O)C4CC4)cc3)n2)n[nH]1 [Tozasertib] (partner 0.1 µM)
Outline: as §1

[4] = compound: C1CCC(CC1)N(CCNCCC2=C3C(=C(C=C2)O)NC(=O)CO3)C(=O)CCNCCC4=CC(=C(C=C4)Cl)Cl [AZ505] + CC(C)C[C@H](NC(=O)[C@H](Cc1ccccc1)NC(=O)c1cnccn1)B(O)O [Bortezomib] (partner 0.002 µM)
Outline: as §1

Cell Line	relative viability ([1]; first compound 0.08 µM)	relative viability ([1]; first compound 0.253 µM)	relative viability ([1]; first compound 0.8 µM)	relative viability ([1]; first compound 2.53 µM)	relative viability ([1]; first compound 8 µM)	relative viability ([2]; first compound 0.08 µM)	relative viability ([2]; first compound 0.253 µM)	relative viability ([2]; first compound 0.8 µM)	relative viability ([2]; first compound 2.53 µM)	relative viability ([2]; first compound 8 µM)	relative viability ([3]; first compound 0.08 µM)	relative viability ([3]; first compound 0.253 µM)	relative viability ([3]; first compound 0.8 µM)	relative viability ([3]; first compound 2.53 µM)	relative viability ([3]; first compound 8 µM)	relative viability ([4]; first compound 0.08 µM)	relative viability ([4]; first compound 0.253 µM)	relative viability ([4]; first compound 0.8 µM)	relative viability ([4]; first compound 2.53 µM)	relative viability ([4]; first compound 8 µM)
NCI-H647	0.521	0.739	0.547	0.533	0.706	1.03	1.11	1.01	1.03	1.17	0.46	0.425	0.277	0.372	0.363	1.07	1.13	1	1.19	1.01
NCI-H2023	0.414	0.496	0.499	0.471	0.43	0.674	0.822	0.845	0.917	0.815	0.293	0.371	0.395	0.298	0.322	0.845	0.872	0.911	1.18	1.01
NCI-H23	0.256	0.362	0.305	0.364	0.337	1.02		0.984	1.23	1.15	0.388		0.392	0.402	0.327	0.674		1.21	0.956	1.07
NCI-H520	0.288	0.279	0.367	0.302	0.349	0.799	0.828	0.761	0.895	0.983	0.441	0.389	0.44	0.469	0.463	0.588	0.504	0.496	0.706	0.762
NCI-H460	0.365	0.477	0.388	0.46	0.477	0.874	1.1	0.877	0.922	1.07	0.481	0.0927	0.551	0.204	0.299	0.945	1.24	1.04	1.09	1.11
EKVX		0.895	0.764	0.874	0.916	0.225	0.184	0.175	0.185	0.214	0.372	0.354	0.435	0.38	0.378	0.992	0.906	0.986	1.09	0.992
EPLC-272H	0.638	0.664	0.654	0.782	0.628	0.785	0.817	0.867	0.871	0.956		0.392	0.282	0.316	0.25	0.769	1.04	0.85	0.721	0.904
NCI-H2126	0.841	0.915	0.827	0.878	0.948	0.758	0.78	0.767	0.639	0.701	0.816	0.809	0.821	0.806	0.892	1.11	1.09	1.08	1.09	1.04
